{
  "source": "patent US20260034200A1",
  "about": "“TOLEROGENIC PEPTIDES” (University of Birmingham, priority 2022, published 2026)",
  "key": {"[1]": {"tested_on": "peripheral blood mononuclear cells (PBMCs)", "assay": "Human PBMC 3H-thymidine incorporation assay", "type": "cell-based", "settings": "for positive response rate in 3H-thymidine incorporation assay: day 7, positive = SI>=3 and ccpm >1000", "experimental": "Fresh blood samples were collected in CPDA-tubes. PBMCs from lymphocyte cones or fresh blood were isolated by Ficoll gradient centrifugation, frozen in 40% RPMI-1640, 50% heat inactivated fetal bovine serum (Sigma; F9665) and 10% DMSO and stored in liquid nitrogen until required. Thawed PBMCs were cultured at 1.5×10^6 cells/mL in X-VIVO-15 medium ((Lonza BE02-061Q) supplemented with 5% v/v human AB serum (Sigma H4522), 1× penicillin/streptomycin (Gibco 15140122)) either in the presence of GAD65 P10 30-mer antigen between 20-50 μg/mL or absence of antigen (negative control). Peptide response was measured by 3H radioactive thymidine incorporation on day 5 and day 7, by pulsing cell cultures with ^3H-thymidine (Perkin Elmer), as previously described (Mazza et al., 2002). Positive responses had corrected counts per minute (ccpm) counts >1000 and a stimulation index (SI)≥3, calculated as the fold-change of peptide stimulated condition over the negative control.\nThe workflow to design and validate tolerogenic apitopes (antigen processing independent T-cell epitopes) begins with identification of peptides predicted to bind to various HLA-DR molecules (pan-DR binders) using a combination of publicly available MHC-binding algorithms (FIG. 1A). In silico analyses identified 9 or 15 amino acid peptides within GAD65 that were extended to ˜30-mer peptides (FIG. 1B) to encourage antigen processing and presentation of a naturally processed epitope (Anderton et al., 2002). To test whether the designed 30-mer peptides could be correctly processed and preferentially induce immune responses in T1D patients, we screened for GAD65 30-mers responses in isolated peripheral blood mononuclear cells (PBMCs) from 20 non-diabetic healthy controls and 40 adults with T1D. […] On day 7 of the ^3H-thymidine incorporation assay, 20% (4/20) of healthy controls had shown a positive response to GAD65 P10 30-mer compared to 58% (23/40) of T1D patients (FIG. 1C)."}, "[2]": {"tested_on": "HLA-DR4 transgenic mice", "assay": "Peptide immunogenicity in HLA-DR transgenic mice (immunisation)", "type": "in vivo, mouse", "settings": "HLA-DR4 transgenic mice (HLA-DRB1*04:01); data not shown", "experimental": "(§1) HLA-DR4 transgenic mice were injected subcutaneously with Complete Freund's Adjuvant (CFA) and 100 μg of GAD65 P10 30-mer. After 10 days, splenocytes were isolated and re-stimulated with GAD65 P10 30-mer for a further 4-5 days before fusion with hypoxanthine-aminopterin-thymidine (HAT) sensitive BW5147 cells using polyethylene glycol (PEG). Fused hybridomas were expanded in HAT selection media before antigen-specific screening. Co-cultures of 1×10^5 hybridomas and 2×10^5 Priess cells (an Epstein-Barr Virus (EBV) transformed DR4 (DRB1*04:01) expressing human cell line (ECACC 86052111)) as antigen presenting cells (APCs) were incubated for 48 h in a 96-well plate with peptide, whole GAD65 protein, or media only. Antigen-specific responses were determined by IL-2 secretion into culture supernatant by ELISA assay (BioLegend 431004). Hybridomas that proliferated in response to both GAD65 protein and GAD65 30-mer were single cell cloned by limiting dilution.\nGeneration of hybridomas that respond to both the GAD65 protein and the P10 30-mer peptide means that these hybridomas can recognise naturally processed peptide presented by APCs—a property shown to be critical for successful peptide immunotherapy design (Anderton et al 2002)."}, "[3]": {"tested_on": "GAD65 P10-specific T-cell hybridomas", "assay": "T-cell hybridoma screen with Priess cells as APCs, IL-2 ELISA", "type": "cell-based, mouse", "settings": "hybridoma multi-clone 6 with HLA-DRB1*04:01 expressing APCs", "experimental": "as §1\nSix 15-mers that spanned the parent 30-mer amino acid sequence were generated by 3 amino acid shifts from the N-terminus toward the C-terminus."}},
  "data": [
    {"sequence": "DAAWGGGLLMSRKHKWKLSGVERANSVTWN [P10 30-mer]", "values": [
      {"measurement": "average magnitude of the proliferative response", "setting": "[1]; T1D patients vs healthy controls, Mann-Whitney p=0.0146", "result": "significantly increased"},
      {"measurement": "positive response rate in 3H-thymidine incorporation assay", "setting": "[1]; T1D patients (23/40)", "result": 58, "unit": "%"},
      {"measurement": "positive response rate in 3H-thymidine incorporation assay", "setting": "[1]; non-diabetic healthy controls (4/20)", "result": 20, "unit": "%"},
      {"measurement": "response to immunisation", "setting": "[2]", "result": "responded well"},
      {"measurement": "hybridoma IL-2 response", "setting": "[3]", "result": "could respond"}
    ]}
  ]
}
